# Data as given in US20100099564A1, “HERBICIDE COMBINATION COMPRISING DIMETHOXYTRIAZINYL-SUBSTITUTED DIFLUOROMETHANESULFONYLANILIDES” (BAYER CROPSCIENCE AG, priority 2008, published 2010).
# Where two headings read alike, the source gives them in different places.
# What was measured:
# Format in all cases: in vivo
# [1] = tested on: Fallopia (ex Polygonum) convolvulus (POLCO); assay: Post-emergence action, greenhouse pot test, visual scoring: POLCO; conditions: 21 DAT
# Procedure: (§1) Seeds or rhizome pieces of mono- and dicotyledonous harmful and useful plants were placed in peat pots (diameter 4 cm) filled with sandy loam and then covered with soil. The pots were kept in a greenhouse under optimum conditions. In addition, harmful plants encountered in paddy rice cultivation were cultivated in pots with a water level 2 cm above the soil surface.
# (§2) About three weeks after the start of the cultivation, the test plants were treated at the 2- to 3-leaf stage. The herbicides, formulated as powder or liquid concentrates, were, either alone or in the combinations according to the invention, sprayed in various dosages on to the green parts of the plants using an application rate of 600 l of water/ha (converted). For further cultivation of the plants, the pots were then again kept under optimum conditions in a greenhouse.
# (§3) The visual scoring of the herbicidal effects was carried out in intervals up to 21 days after the treatment. Scoring was carried out in percent in comparison to the untreated control plants. 0%=no herbicidal activity, 100%=complete herbicidal activity=complete kill.
# (§4) The percentages from the treatments with the herbicides alone (=individual application) and with the combinations according to the invention (=mixtures) were employed to calculate interactions using the method of Colby. When the observed efficacies of the mixtures exceed the formal sum of the values of the tests with individual applications, they also exceed the expected value according to Colby, which is calculated using the formula below (cf. S. R. Colby; in Weeds 15 (1967) pp. 20 to 22):
# (§5) Here: • A, B=activity of components A and B in percent at a dosage of a and b g of ai/ha (=gramm of active substance per hectare), respectively. • E=expected value in % at a dosage of a+b g of ai/ha.
# (§6) The combinations according to the invention of herbicides from group (A) with herbicides from group (B) were tested on a broad spectrum of important harmful plants (weed grasses, broad-leaved weeds/Cyperaceae) and useful plants: Triticum aestivum (TRZAS), Stellaria media (STEME), Lolium multiflorum (LOLMU), Veronica persica (VERPE), Alopecurus myosuroides (ALOMY), Matricaria inodora (MATIN), Brassica napus (BRSNW), Viola tricolor (VIOTR), Avena fatua (AVEFA), Amaranthus retroflexus (AMARE), Zea mays (ZEAMX), Pharbitis purpurea (PHBPU), Setaria viridis (SETVI), Fallopia (ex Polygonum) convolvulus (POLCO), Echinochloa crusgaffi (ECHCG), Abuthilon theophrasti (ABUTH), Cyperus esculentus (CYPES), Oryza sativa (ORYSA).
# (§7) Of particular interest are the results shown in the tables (Tab.) below, where the following key is used: • (1) EPPO code (former Bayer code) for the treated plant (see above) • (2) Time of scoring: DAT (days after treatment) • (3) Component A tested (identifying number) • (4) Component B tested (identifying number) • (5) Dosage component A [g of ai/ha] • (6) Dosage component B [g of ai/ha] • (7) % activity found • (8) E value (calculated according to Colby; see above) • (9) Comments: “SYNERGY” =synergistic interaction (E value<% activity found); “SAFENING”=safener action on useful plant (E value>% activity found)
# [2] = tested on: Zea mays (ZEAMX); assay: Post-emergence action, greenhouse pot test, visual scoring: ZEAMX; conditions: for plant injury at 40 g/ha: B 40 g of ai/ha
# Procedure: as §1, §2, §3, §4, §5, §6, §7
# [3] = tested on: Avena fatua (AVEFA); assay: Post-emergence action, greenhouse pot test, visual scoring: AVEFA; conditions: 21 DAT
# Procedure: as §1, §2, §3, §4, §5, §6, §7
# [4] = tested on: Triticum aestivum (TRZAS); assay: Post-emergence action, greenhouse pot test, visual scoring: TRZAS
# Procedure: as §1, §2, §3, §4, §5, §6, §7
# [5] = tested on: Oryza sativa (ORYSA); assay: Post-emergence action, greenhouse pot test, visual scoring: ORYSA
# Procedure: as §1, §2, §3, §4, §5, §6, §7
# [6] = tested on: Cyperus esculentus (CYPES); assay: Post-emergence action, greenhouse pot test, visual scoring: CYPES; conditions: 21 DAT
# Procedure: as §1, §2, §3, §4, §5
# [7] = tested on: Veronica persica (VERPE); assay: Post-emergence action, greenhouse pot test, visual scoring: VERPE; conditions: 21 DAT
# Procedure: as §1, §2, §3, §4, §5, §6, §7
# [8] = tested on: Pharbitis purpurea (PHBPU); assay: Post-emergence action, greenhouse pot test, visual scoring: PHBPU; conditions: 21 DAT
# Procedure: as §1, §2, §3, §4, §5, §6, §7
# [9] = tested on: Lolium multiflorum (LOLMU); assay: Post-emergence action, greenhouse pot test, visual scoring: LOLMU
# Procedure: as §1, §2, §3, §4, §5, §6, §7
# [10] = tested on: Alopecurus myosuroides (ALOMY); assay: Post-emergence action, greenhouse pot test, visual scoring: ALOMY; conditions: Alopecurus myosuroides, post-emergence, read-out: % activity found; for pest or weed control at 40 g/ha: B 40 g of ai/ha
# Procedure: as §1, §2, §3, §4, §5
# [11] = tested on: Setaria viridis (SETVI); assay: Post-emergence action, greenhouse pot test, visual scoring: SETVI; conditions: Setaria viridis, post-emergence, 504 h; 21 DAT, B 40 g of ai/ha; read-out: % activity found
# Procedure: as §1, §2, §3, §4, §5, §6, §7
# [12] = tested on: Viola tricolor (VIOTR); assay: Post-emergence action, greenhouse pot test, visual scoring: VIOTR; conditions: rate (6) 2
# Procedure: as §1, §2, §3, §4, §5, §6, §7
compound,measurement,setting,value
"COC(=O)c1ccc(CNS(C)(=O)=O)cc1S(=O)(=O)NC(=O)Nc1nc(OC)cc(OC)n1 [B7-17, methyl 2-[[[[(4,6-dimethoxy-2-pyrimidinyl)amino]carbonyl]amino]sulfonyl]-4-[[(methylsulfonyl)amino]methyl]benzoate]",(7) % activity found,[1]; rate (6) 2,40%
same,(7) % activity found,[1]; rate (6) 6,50%
same,(7) % activity found,"[2]; 10 DAT, rate (6) 6",40%
same,(7) % activity found,[3]; rate (6) 2,20%
same,(7) % activity found,[3]; rate (6) 6,70%
same,(7) % activity found,"[4]; 10 DAT, rate (6) 2",40%
same,(7) % activity found,"[4]; 10 DAT, rate (6) 6",60%
same,(7) % activity found,"[4]; 21 DAT, rate (6) 2",20%
same,(7) % activity found,"[4]; 21 DAT, rate (6) 6",70%
same,(7) % activity found,"[5]; 10 DAT, rate (6) 6",90%
"COC(=O)c1csc(C)c1S(=O)(=O)NC(=O)n1nc(OC)n(C)c1=O [B8-3, methyl 4-[[[(4,5-dihydro-3-methoxy-4-methyl-5-oxo-1H-1,2,4-triazol-1-yl)carbonyl]amino]sulfonyl]-5-methyl-3-thiophenecarboxylate]",(7) % activity found,[6]; rate (6) 0.7,0%
same,(7) % activity found,"[2]; 21 DAT, rate (6) 2",20%
same,(7) % activity found,[7]; rate (6) 2,40%
same,(7) % activity found,[3]; rate (6) 0.7,50%
same,(7) % activity found,"[4]; 21 DAT, rate (6) 2",30%
same,(7) % activity found,"[5]; 10 DAT, rate (6) 0.7",50%
same,(7) % activity found,"[5]; 10 DAT, rate (6) 2",70%
same,(7) % activity found,"[5]; 21 DAT, rate (6) 2",40%
"COc1cnc(OC)n2nc(NS(=O)(=O)c3c(OCC(F)F)cccc3C(F)(F)F)nc12 [B9-6, 2-(2,2-difluoroethoxy)-N-(5,8-dimethoxy[1,2,4]triazolo[1,5-c]pyrimidin-2-yl)-6-(trifluoromethyl)benzenesulfonamide]",(7) % activity found,[8]; rate (6) 5,10%
same,(7) % activity found,[8]; rate (6) 15,30%
same,(7) % activity found,"[2]; 10 DAT, rate (6) 5",0%
same,(7) % activity found,"[2]; 10 DAT, rate (6) 15",30%
same,(7) % activity found,"[9]; 21 DAT, rate (6) 5",20%
same,(7) % activity found,"[4]; 10 DAT, rate (6) 15",10%
same,(7) % activity found,"[4]; 21 DAT, rate (6) 15",0%
"O=C(Nc1ccc(F)cc1F)c1cccnc1Oc1cccc(C(F)(F)F)c1 [B3-1, N-(2,4-difluorophenyl)-2-[3-(trifluoromethyl)phenoxy]-3-pyridinecarboxamide]",% activity found,[6]; B 40 g of ai/ha,0%
same,% activity found,[6]; B 120 g of ai/ha,0%
same,plant injury at 40 g/ha,"[2]; Zea mays, post-emergence, 240 h, 10 DAT, read-out: % activity found",40%
same,plant injury at 120 g/ha,"[2]; Zea mays, post-emergence, 240 h, 10 DAT, B 120 g of ai/ha, read-out: % activity found",40%
same,plant injury at 40 g/ha,"[2]; Zea mays, post-emergence, 504 h, 21 DAT, read-out: % activity found",30%
same,pest or weed control at 40 g/ha,"[10]; 240 h, 10 DAT",40%
same,pest or weed control at 40 g/ha,"[10]; 504 h, 21 DAT",10%
same,pest or weed control at 120 g/ha,"[10]; 504 h, 21 DAT, B 120 g of ai/ha",20%
same,% activity found,"[9]; 21 DAT, B 120 g of ai/ha",30%
same,plant injury at 40 g/ha,"[4]; Triticum aestivum, post-emergence, 240 h, 10 DAT, B 40 g of ai/ha, read-out: % activity found",20%
same,plant injury at 40 g/ha,"[5]; Oryza sativa, post-emergence, 504 h, 21 DAT, B 40 g of ai/ha, read-out: % activity found",30%
same,plant injury at 120 g/ha,"[5]; Oryza sativa, post-emergence, 504 h, 21 DAT, B 120 g of ai/ha, read-out: % activity found",50%
same,pest or weed control at 40 g/ha,[11],60%
"COCCOc1ccccc1S(=O)(=O)NC(=O)Nc1nc(OC)nc(OC)n1 [B7-6, N-[[(4,6-dimethoxy-1,3,5-triazin-2-yl)amino]carbonyl]-2-(2-methoxyethoxy)benzenesulfonamide]",% activity found,[6]; dose (6) 21,0%
same,% activity found,"[9]; 10 DAT, dose (6) 7",40%
same,% activity found,"[9]; 21 DAT, dose (6) 7",10%
same,% activity found,[7]; dose (6) 7,0%
same,% activity found,[7]; dose (6) 21,0%
"COC(=O)c1ccc(I)cc1S(=O)(=O)NC(=O)Nc1nc(C)nc(OC)n1.[Na] [B7-16, methyl 4-iodo-2-[[[[(4-methoxy-6-methyl-1,3,5-triazin-2-yl)amino]carbonyl]amino]sulfonyl]benzoate sodium salt]",(7) % activity found,"[2]; 10 DAT, rate (6) 2",30%
same,(7) % activity found,"[2]; 10 DAT, rate (6) 6",20%
same,(7) % activity found,"[2]; 21 DAT, rate (6) 2",0%
same,(7) % activity found,[12]; 10 DAT,70%
same,(7) % activity found,[12]; 21 DAT,90%
same,(7) % activity found,[3]; rate (6) 2,10%
same,(7) % activity found,"[4]; 10 DAT, rate (6) 2",40%
same,(7) % activity found,"[4]; 21 DAT, rate (6) 2",20%
same,(7) % activity found,"[4]; 21 DAT, rate (6) 6",60%
same,(7) % activity found,"[5]; 10 DAT, rate (6) 2",90%
same,(7) % activity found,"[5]; 21 DAT, rate (6) 2",70%
